Toxic doses and inconclusive results are not listed. Cut-off read from the data, not from the text of the source: active = T/C of 150% or more; inactive = T/C below 125%.
System: L1210 leukemia ip in BDF1 mice, survival T/C
Assay: NCI In Vivo Anticancer Drug Screen. Data for tumor model L1210 Leukemia (intraperitoneal) in B6D2F1 (BDF1) mice
Conditions: endpoint: mean survival time, higher = longer survival
Outline: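 Transplantable tumor model; survival measured in treated vs vehicle control mice. Value = treated/control.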

[1] = dose: 100.0 mg/kg/injection, schedule: Q01DX001 (ip), vehicle: Klucel (hydroxypropylcellulose) (HPC)
[2] = dose: 200.0 mg/kg/injection, schedule: Q01DX001 (ip), vehicle: Klucel (hydroxypropylcellulose) (HPC)
[3] = dose: 100.0 mg/kg/injection, schedule: Q01DX001 (ip), vehicle: saline
[4] = dose: 200.0 mg/kg/injection, schedule: Q01DX001 (ip), vehicle: saline
[5] = dose: 400.0 mg/kg/injection, schedule: Q01DX001 (ip), vehicle: saline
[6] = dose: 50.0 mg/kg/injection, schedule: Q01DX009 (ip), vehicle: Klucel (hydroxypropylcellulose) (HPC)
[7] = dose: 100.0 mg/kg/injection, schedule: Q01DX009 (ip), vehicle: Klucel (hydroxypropylcellulose) (HPC)
[8] = dose: 200.0 mg/kg/injection, schedule: Q01DX009 (ip), vehicle: Klucel (hydroxypropylcellulose) (HPC)
[9] = dose: 400.0 mg/kg/injection, schedule: Q01DX009 (ip), vehicle: Klucel (hydroxypropylcellulose) (HPC)

Measured: T/C

c1ccc(N(c2ccccc2)[Si](c2ccccc2)(c2ccccc2)c2ccccc2)cc1
inactive: dose: 25.6 mg/kg/injection, schedule: Q04DX002 (ip), vehicle: saline with Tween-80 93 % of control | dose: 64.0 mg/kg/injection, schedule: Q04DX002 (ip), vehicle: saline with Tween-80 93 % of control | dose: 160.0 mg/kg/injection, schedule: Q04DX002 (ip), vehicle: saline with Tween-80 97 % of control | dose: 400.0 mg/kg/injection, schedule: Q04DX002 (ip), vehicle: saline with Tween-80 104 % of control

COB(OC)C1CCCC1
inactive: [1] 92 % of control | [2] 95 % of control

Cc1ccc(C(CS(=O)(=O)c2ccc(C)cc2)c2ccccc2)cc1 (stereo not drawn)
inactive: [3] 92 % of control | [4] 103 % of control | [5] 94 % of control

O=C(ONC(=O)[C@@H]1CCCC[C@H]1C(=O)NOC(=O)c1ccccc1)c1ccccc1
inactive: dose: 50.0 mg/kg/injection, schedule: Q01DX001 (ip), vehicle: Klucel (hydroxypropylcellulose) (HPC) 97 % of control | [6] 92 % of control | [1] 97 % of control | [7] 92 % of control | [2] 97 % of control | [8] 103 % of control | dose: 400.0 mg/kg/injection, schedule: Q01DX001 (ip), vehicle: Klucel (hydroxypropylcellulose) (HPC) 96 % of control | [9] 97 % of control

COc1cccc(/C=C/c2nc3ccccc3nc2/C=C/c2cccc(OC)c2OC)c1OC
inactive: [6] 95 % of control | [7] 92 % of control | [8] 101 % of control

C[CH2][Ge]1([CH2]C)[CH2]C(C)=C(C)[CH2]1
inactive: dose: 100.0 mg/kg/injection, schedule: Q04DX002 (ip), vehicle: saline with Tween-80 95 % of control | dose: 200.0 mg/kg/injection, schedule: Q04DX002 (ip), vehicle: saline with Tween-80 95 % of control

COc1ccc(CCNC(=S)NC(=O)c2ccc(Cl)c(Cl)c2)cc1OC
inactive: [7] 91 % of control | [8] 86 % of control | [9] 93 % of control

CC(=O)NCC1CCC(CNC(C)=O)CC1 (stereo not drawn)
inactive: dose: 100.0 mg/kg/injection, schedule: Q01DX009 (ip), vehicle: saline 103 % of control | dose: 100.0 mg/kg/injection, schedule: Q04DX003 (ip), vehicle: saline 100 % of control | dose: 200.0 mg/kg/injection, schedule: Q01DX009 (ip), vehicle: saline 107 % of control | dose: 200.0 mg/kg/injection, schedule: Q04DX003 (ip), vehicle: saline 105 % of control | dose: 400.0 mg/kg/injection, schedule: Q01DX009 (ip), vehicle: saline 95 % of control | dose: 400.0 mg/kg/injection, schedule: Q04DX003 (ip), vehicle: saline 100 % of control

O=S(=O)(O)CS(=O)(=O)O
inactive: dose: 5.0 mg/kg/injection, schedule: Q01DX001 (ip), vehicle: saline 101 % of control | dose: 10.0 mg/kg/injection, schedule: Q01DX001 (ip), vehicle: saline 100 % of control | dose: 20.0 mg/kg/injection, schedule: Q01DX001 (ip), vehicle: saline 97 % of control | dose: 40.0 mg/kg/injection, schedule: Q01DX001 (ip), vehicle: saline 101 % of control

Cc1cccc2ccc3cccc(C)c3c12
inactive: [3] 98 % of control | [4] 92 % of control | [5] 95 % of control

COc1ccc(C)c(CN(C)C)c1
inactive: dose: 50.0 mg/kg/injection, schedule: Q01DX001 (ip), vehicle: saline 107 % of control | [3] 101 % of control

NS(=O)(=O)c1ccc(N=Cc2cc(Cl)cc(Cl)c2O)cc1
inactive: [7] 101 % of control | [8] 106 % of control | [9] 106 % of control

O=C(OCC1OC(n2c(=O)[nH]c(=S)c3ncsc32)C(OC(=O)c2ccccc2)C1OC(=O)c1ccccc1)c1ccccc1 (stereo not drawn)
inactive: dose: 100.0 mg/kg/injection, schedule: Q01DX005 (ip), vehicle: saline 95 % of control | dose: 200.0 mg/kg/injection, schedule: Q01DX005 (ip), vehicle: saline 91 % of control

CN1C(=O)CN=C(c2ccccn2)c2cc(Cl)ccc21
inactive: dose: 100.0 mg/kg/injection, schedule: Q01DX001 (ip), vehicle: saline sonified 112 % of control | dose: 200.0 mg/kg/injection, schedule: Q01DX001 (ip), vehicle: saline sonified 96 % of control | dose: 400.0 mg/kg/injection, schedule: Q01DX001 (ip), vehicle: saline sonified 103 % of control
